Measured values published in patent publication US11866466B2, “Tumor homing and cell penetrating peptide-immuno-oncology agent complexes and methods of use thereof” (BLAZE BIOSCIENCE, INC., priority 2017, dated 2024).
{ppp} = triphosphate on the strand's 5' end

Key:
STING = settings: from Lioux et al.; cited from earlier work
[1] = tested on: IFN pathway (JAK/STAT/ISGF3 pathway and/or IRF3 pathway) in SEAP reporter cells; RIG-I; test: B16-Blue IFN-alpha/beta SEAP reporter cell assay; type: cell-based, murine; settings: for luminescence signal (RLU) from activating the IFN pathway: 12 pmol or 120 pmol, 24, 48, or 72 hours, no transfection reagent (FIG. 19); for RLU signal in the presence of transfection reagent: with Lipofectamine transfection reagent (FIG. 22)
A20 lymphoma cells [2] = test: Intratumoral microinjection in A20 tumors, IFNb mRNA in situ hybridization (RNAscope); type: in vivo, mouse; settings: 4 hours after administration; complex at 1 ug or 2 ug (FIG. 84, FIG. 85)
A20 lymphoma cells [3] = test: Intratumoral microinjection in A20 lymphoma tumors, CC3 immunostaining and radial plot analysis; type: in vivo, mouse; settings: for CC3 staining (apoptosis) at injection site: 24 hours after administration, complex at 1 μg and 2 μg doses (FIG. 81)
[4] = tested on: CT26 colon carcinoma cells; test: Intratumoral microinjection in CT26 flank tumors, cleaved caspase 3 (CC3) immunostaining; type: in vivo, mouse
[5] = Tolerability of intraperitoneal peptide-IL-15 agent complexes in CT26 tumor mice; type: in vivo, mouse; settings: 1-12 ug in 100 μl, 4 days a week intraperitoneally, 7 doses
Protocol: This example describes peptide-IL-15 agent complex accumulation in tumors. Peptide-IL-15 agent complexes such as this in example 18 were expressed and purified. Mice were dosed with 0.2 million CT26 cells, which were allowed to grow for 5 days, at which time tumors were palpable. Mice were dosed with 1-12 ug of SEQ ID NO: 1317, SEQ ID NO: 1321, an RLI, or no agent in 100 μl 4 days a week intraperitoneally. […] After 7 doses, the animals were sacrificed and the tumor tissue was harvested and fixed.

Mo7e cells = test: Mo7e proliferation assay (PrestoBlue); type: cell-based, human; settings: 3 days incubation (FIG. 29)
Protocol: (§1) This example describes in vitro proliferation of cells treated with peptide-IL-15 agent complexes using cytokine dependent CTLL2 (mouse cytotoxic T lymphocyte cell line), Mo7e (human acute megakaryoblastic leukemia cell line) and human primary CD8+ T cells. All assays were performed in the 96 well plate format in clear bottom black walled tissue culture plates. Peptide-I/O complexes comprising SEQ ID NO: 568, peptide-I/O complexes comprising an IL-15 agent, and peptide-I/O complexes comprising a His-tagged RLI control proteins (SEQ ID NO: 1342) were diluted in culture media without cytokine supplement. […]
CTLL2 and Mo7e cells were maintained as cell cultures in media containing either IL-2 (CTLL2) or IL-3 (Mo7e). Viability and cell concentration were analyzed using a Viacell cell counter. […]
After the end of the incubation period, PrestoBlue live cell assay reagent (Invitrogen) was added to each well (10 μL per 100 μL well). […] Fluorescence was quantified using an Envision (Perkin Elmer 2104) plate reader. Data was graphed and analyzed in Excel, GraphPad Prism 7, or the AAT Bioquest graphing and EC50 calculator https://www.aatbio.com/tools/ec50-calculator. […]
After the end of the incubation period, PrestoBlue live cell assay reagent (Invitrogen) was added to each well per manufacture instructions. […] PrestoBlue fluorescence was quantified using an Envision (Perkin Elmer 2104) plate reader.

[6] = tested on: PHA induced T cell blasts; test: PHA induced T cell blast proliferation assay (PrestoBlue); type: cell-based, human; settings: FIG. 30B; same CD8+ T cell donor
Protocol: as §1
(§2) CD8+ selected primary human T-cells were received as frozen cells and stored in the LN2 vapor phase until used. […] 15 mL of room temperature 10% FBS RPMI media was added to the cell suspension; the cells were then pelleted, resuspended in 10% FBS media, and counted using the Viacell. […]
(§3) After the end of the incubation period, PrestoBlue live cell assay reagent (Invitrogen) was added to each well (10 μL per 100 μL well). […] Fluorescence was quantified using an Envision (Perkin Elmer 2104) plate reader. Data was graphed and analyzed in Excel, GraphPad Prism 7, or the AAT Bioquest graphing and EC50 calculator https://www.aatbio.com/tools/ec50-calculator.

[7] = tested on: CD8+ primary human T cells; test: CD8+ primary human T cell proliferation assay (PrestoBlue); type: cell-based; settings: FIG. 30A
Protocol: as §1, §2, §3

For 3′,2′c-AIMP [Analog 23], the “activity relative to 2′,3′-cGAMP” value (STING) is listed as “equivalent in activity to 2′,3′-cGAMP”.
With “5′ppp dsRNA: SEQ ID NO: 1424 (with triphosphate on the 5′ end) and SEQ ID NO: 1425 (no terminal phosphates) complexed together (chain 1 GCAUGCGACCUCUGUUUGA; chain 2 UCAAACAGAGGUCGCAUGC; chain 1: RNA, 5' {ppp}, backbone and methylation of C not given here; chain 2: RNA, backbone and methylation of C not given here)” the “luminescence signal (RLU) from activating the IFN pathway” value [1] was “Very little signal” and the “RLU signal in the presence of transfection reagent” value [1] was “high signaling”.
In the case of “5′ppp hpRNA: I/O comprising a dsRNA SEQ ID NO: 1371 with a 5′ppp, which forms a hairpin structure (GCAUGCGACCUCUGUUUGAUCAAACAGAGGUCGCAUGC; RNA, 5' {ppp}, backbone and methylation of C not given here; hairpin RNA)”, the “IFNb mRNA staining at injection site” value (A20 lymphoma cells [2]) is reported as “significant IFNb mRNA staining”, the “fraction of cells positive for CC3 staining versus distance from injection site (radial plot)” value (A20 lymphoma cells [3]; 24 hour timepoint, 7-8 tumors per test article, complex at 1 μg and 2 μg (FIG. 82)) is reported as “very little increase in CC3 positive cells” and the “CC3 staining (apoptosis) at injection site” value (shortened to “CC3 staining (apoptosis)”) (A20 lymphoma cells [3]) is reported as “do not show similarly strong induction of apoptosis”. The “luminescence signal (RLUs) with transfection reagent” value ([1]; 16.2 pmole, 24 hours, with Lipofectamine (FIG. 80)) was “High signaling”.
In the case of Nc1ncnc2c1ncn2C1OC2COP(=O)(O)OC3C(COP(=O)(O)OC2C1O)OC(n1cnc2c(=O)[nH]cnc21)C3O (stereo not shown) [Analog 9, 3′,3′c-AIMP], the “activity relative to 2′,3′-cGAMP” value (STING) is listed as “equivalent in activity to 2′,3′-cGAMP”.
In the case of Nc1ncnc2c1ncn2C1OC2COP(=O)(O)O[C@@H]3C(COP(=O)(O)O[C@@H]1[C@@H]2O)OC(n1cnc2c(=O)[nH]cnc21)[C@@H]3O (stereo partly shown) [Analog 10, 2′,3′c-AIMP], the “activity relative to 2′,3′-cGAMP” value (STING) is listed as “equivalent in activity to 2′,3′-cGAMP”.
For Nc1ncnc2c1ncn2C1C[C@@H]2OP(=O)(O)OCC3OC(n4cnc5c(=O)[nH]cnc54)C[C@@H]3OP(=O)(O)OCC2O1 (stereo partly shown) [Analog 51, c-(dAMP-dIMP)], the “activity relative to 2′,3′-cGAMP” value (STING) is given as “equivalent in activity to 2′,3′-cGAMP”.
In the case of Nc1ncnc2c1ncn2C1OC2COP(=O)(O)O[C@@H]3C(COP(=O)(O)O[C@H]2[C@H]1F)OC(n1cnc2c(=O)[nH]cnc21)[C@@H]3F (stereo partly shown) [Analog 52, c-(2′FdAMP-2′FdIMP)], the “activity relative to 2′,3′-cGAMP” value (STING) is given as “more potent than 2′,3′-cGAMP”.
In the case of Nc1ncnc2c1ncn2C1OC2COP(=O)(O)OC3CC(n4cnc5c(=O)[nH]cnc54)OC3COP(=O)(O)OC2C1F (stereo not shown) [Analog 54, c-(2′FdAMP-dIMP)], the “activity relative to 2′,3′-cGAMP” value (STING) is given as “equivalent in activity to 2′,3′-cGAMP”.
For Nc1ncnc2c1ncn2C1C[C@@H]2OP(=O)(O)OCC3OC(n4cnc5c(=O)[nH]cnc54)[C@H](F)[C@@H]3OP(=O)(O)OCC2O1 (stereo partly shown) [Analog 55, c-(dAMP-2′FdIMP)], the “activity relative to 2′,3′-cGAMP” value (STING) is listed as “equivalent in activity to 2′,3′-cGAMP”.
For Nc1ncnc2c1ncn2C1OC2COP(=O)(S)OC3CC(n4cnc5c(=O)[nH]cnc54)OC3COP(=O)(S)OC2C1F (stereo not shown) [Analog 56, c-[2′FdAM(PS)-dIM(PS)]], the “activity relative to 2′,3′-cGAMP” value (STING) is listed as “more potent than 2′,3′-cGAMP”.
In the case of Cc1ccc2c(=O)c3cccc(CC(=O)O)c3oc2c1C [DMXAA], the “CC3 staining (apoptosis)” value (A20 lymphoma cells [3]) is reported as “do not show similarly strong induction of apoptosis”.
With CCN(CC)CCCC(C)Nc1ccnc2cc(Cl)ccc12 (stereo not shown) [chloroquine] the “CC3 staining (apoptosis)” value ([4]; 4 hours post-treatment (FIG. 16)) was “did not have a significant region of CC3 staining” and the “CC3 staining (apoptosis)” value ([4]; 24 h, other animals tested) was “One animal showed CC3 staining”.
With “SEQ ID NO: 1342: His-tagged RLI protein comprising SEQ ID NO: 1169, SEQ ID NO: 1176 (IL-15Ra sushi+) and SEQ ID NO: 1177 (IL-15)” the tolerability of treatments [5] was “well tolerated”, the “cytokine activity, proliferation” value (Mo7e cells) was “stimulate Mo7e cells” and the “cytokine activity, proliferation” value [6] was “stimulate human CD8+ T cells”. The “cytokine activity, proliferation” value [7] was “stimulate human CD8+ T cells”.
For c-[2′FdAMP(S)-2′FdIMP(S)] [Analog 53], the “activity relative to 2′,3′-cGAMP” value (STING) is given as “more potent than 2′,3′-cGAMP”.
In the case of cAIM(PS)2 [Analog 13], the “activity relative to 2′,3′-cGAMP” value (STING) is given as “more potent than 2′,3′-cGAMP”.
For “dsRNA: SEQ ID NO: 1424 and SEQ ID NO: 1425 (no terminal phosphates on either strand) complexed together (chain 1 GCAUGCGACCUCUGUUUGA; chain 2 UCAAACAGAGGUCGCAUGC; RNA, backbone and methylation of C not given here; further chemistry not fully specified)”, the “luminescence signal (RLU) from activating the IFN pathway” value [1] was “Very little signal” and the “RLU signal in the presence of transfection reagent” value [1] was “much lower signaling”.
